Data set [1] can be described thus: UV/Vis spectroscopy of film samples against a reference sample. It counts as physicochemical. The note with it: PVA 18-88/glycerol film, FSG medium pH 1.2, spectrum compared with a reference sample. Here is the method: Further, the film was analyzed for the content of Baclofen. To this end, 6 circular samples with a diameter of 1.9 cm (2.84 cm^2) were cut at random positions of the film and analyzed with a UV/Vis spectroscopy in FSG medium, pH 1.2. The absorption spectrum is shown in FIG. 10 in comparison to a reference sample comprising Baclofen solved in FSG medium, pH 1.2.

In data set [2] the test system is transient lower esophageal sphincter relaxations. The note with it: after systemic administration (Lidums 2000); cited from earlier work.
In data set [3] the test system is reflux episodes and transient lower esophageal sphincter relaxations. As to conditions: meta-analysis of nine clinical studies; cited from earlier work.
For data set [4] the following is noted: oral administration, clinical use, 15 to 75 mg per day; cited from earlier work.

Here are results for one molecule from patent US20250228772A1, “DRUG DELIVERY SYSTEM COMPRISING A REFLUX INHIBITOR FOR THE APPLICATION TO ESOPHAGEAL MUCOUS MEMBRANES” (EsoCap AG, priority 2022, published 2025).

For the molecule `NCC(CC(=O)O)c1ccc(Cl)cc1` (stereo not drawn) [Baclofen, 4-Amino-3-(4-chlorphenyl) butyric acid], the “stability of Baclofen in the polymer film” value in data set [1] is given as “can be stably prepared in a film”. Besides, the “transient lower esophageal sphincter relaxations” value in data set [2] is “control transient lower esophageal sphincter relaxations”. In data set [3], the “incidence of transient lower esophageal sphincter relaxations” value is reported as “decreased”, the “length of reflux episodes” value is recorded as “decreased” and the “number of reflux episodes” value is “decreased”. Further, the “tolerability / side effects” value in data set [4] is given as “poor tolerability due to severe side effects”.
